Where two headings read alike, the source gives them in different places.
Columns and labels:
Renal Dipeptidase (RDP) [1] = target: T1, Renal Dipeptidase (RDP) (Homo sapiens, UniProt P16444); conditions: for IC50: read-out: RDP inhibition activity IC50, colon cancer lysate, Table 3; for RDP inhibitor potency in words / activity of Z isomers relative to their E counterparts (9, 11 and 13): human colon cancer lysate, numbering of Table 3
Description: (§1) The RDP inhibition activity of these compounds was determined using crude lysates prepared from human colon cancers. The results are expressed as the concentration of inhibitor needed to inhibit enzyme activity by 50% (IC50). Human colon cancer extracts were prepared by homogenizing one cm^3 of frozen colon tissue in 10 ml of 20 mM Tris, pH 8.0, 10 μM ZnCl2, 0.1% Triton X 100. The extract was clarified by centrifugation at 13,000×g for 5 minutes at 4° C. and, for each measurement, 20 μl was diluted into 158 μl of 20 mM Tris, pH 8.0, 10 μM ZnCl2. 20 μl of the synthesised compounds were added to each reaction to obtain final concentrations ranging from 0 to 10 μM. The mixtures were incubated at room temperature for 30 minutes to allow enzyme-inhibitor complex formation, and the reactions were initiated by the addition of 2 μl of 1 mM substrate (εDNP-L-Lys-D-Amp).^14 While incubating at 37° C., fluorescence (λex=320 nm, λem=405 nm) measurements were determined at 30 sec intervals and the relative reaction rate was taken as the rate of increase of fluorescence over time.

Renal Dipeptidase (RDP) [2] = target: T2, Renal Dipeptidase (RDP) (Homo sapiens, UniProt P16444); experiment: RDP inhibition assay (IC50), small intestine lysate, fluorogenic substrate ε-DNP-L-Lys-D-Amp; assay type: biochemical
T2 construct: from tissue; host or cells: small intestine lysate
T2 sequence (P16444 17-385): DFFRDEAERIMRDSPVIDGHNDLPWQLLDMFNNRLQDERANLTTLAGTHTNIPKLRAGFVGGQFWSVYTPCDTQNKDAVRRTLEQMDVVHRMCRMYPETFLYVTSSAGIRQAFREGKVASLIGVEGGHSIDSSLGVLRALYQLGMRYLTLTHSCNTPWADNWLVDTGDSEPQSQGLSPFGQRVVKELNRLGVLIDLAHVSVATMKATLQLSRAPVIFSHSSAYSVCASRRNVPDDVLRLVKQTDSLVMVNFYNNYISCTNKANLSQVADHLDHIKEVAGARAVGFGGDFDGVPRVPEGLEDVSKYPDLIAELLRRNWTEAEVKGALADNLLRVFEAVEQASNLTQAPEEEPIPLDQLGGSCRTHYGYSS
Description: Inhibitors were diluted from MeOH stock solution in water. […] After mixing incubated at 37° C. Florescence was measured at 30 sec intervals. The IC50 values were determined using small Intestine lysate.

Renal Dipeptidase (RDP) [3] = target: T1, Renal Dipeptidase (RDP); conditions: read-out: RDP inhibition Ki; colon cancer lysate; Table 1
Description: The assay buffer was prepared by mixing 20 mM Tris, pH=8, 10 μM ZnCl2. 1 mM substrate (ε-DNP-L-Lys-D-Amp) stock solution in DMSO was prepared. Inhibitors were diluted from MeOH stock solution in water. […] of lysate was taken in 150 μl of assay buffer and 20 μl of inhibitor was added. The mixture was incubated at room temperature for 30 min. It was then transferred to plate containing 2 μl/well, 1 mM substrate in DMSO. After mixing incubated at 37° C. Florescence was measured at 30 sec intervals. The IC50 values were determined using small Intestine lysate. Ki values were determined for selected compounds using colon cancer lysate.
as §1

`NC(CC1CCCCC1)P(=O)(O)C/C(=C/c1ccc(I)cc1)C(=O)O` (centres unmarked) [compound 13] gave an IC50 (Renal Dipeptidase (RDP) [1]) of 60 nM, an IC50 (Renal Dipeptidase (RDP) [2]; Table 1) of 25 nM and a Ki (Renal Dipeptidase (RDP) [3]) of 2 nM.

In the case of `NC(CC1CCCCC1)P(=O)(O)C/C(=C/c1ccc(C(F)(F)F)cc1)C(=O)O` (centres unmarked) [compound 19], the IC50 (Renal Dipeptidase (RDP) [2]; Table 2) is reported as 200 nM.

With `NC(CC1CCCCC1)P(=O)(O)C/C(=C\c1ccccc1)C(=O)O` (centres unmarked) [compound 6] the IC50 (Renal Dipeptidase (RDP) [2]; Table 1) was 28 nM and the Ki (Renal Dipeptidase (RDP) [3]) was 1.12 nM.

Work on `CCN(CC)c1ccc(/C=C(/CP(=O)(O)C(N)CC2CCCCC2)C(=O)O)cc1` (centres unmarked) [compound 27] yielded an IC50 (Renal Dipeptidase (RDP) [2]; Table 2) of 150 nM.

Compound `CCN(CC)c1ccc(/C=C(\CP(=O)(O)C(N)CC2CCCCC2)C(=O)O)cc1` (centres unmarked) [compound 26] has an IC50 (Renal Dipeptidase (RDP) [2]; Table 2) of 70 nM.

Work on `NC(CC1CCCCC1)P(=O)(O)C/C(=C/c1ccc(Br)cc1)C(=O)O` (centres unmarked) [compound 11] yielded an IC50 (Renal Dipeptidase (RDP) [1]) of 25 nM, an IC50 (Renal Dipeptidase (RDP) [2]; Table 1) of 30 nM and a Ki (Renal Dipeptidase (RDP) [3]) of 2.4 nM.

In the case of `NC(CC1CCCCC1)P(=O)(O)CC(=Cc1ccc(I)cc1)C(=O)O` (mixture of isomers) [compound 15], the “RDP inhibitor potency in words” value (Renal Dipeptidase (RDP) [1]) is reported as “far less active”, the IC50 (Renal Dipeptidase (RDP) [1]) is reported as 45 nM and the IC50 (Renal Dipeptidase (RDP) [2]; Table 1) is reported as 250 nM. For the same compound, the Ki (Renal Dipeptidase (RDP) [3]) was 10 nM.

For `NC(CC1CCCCC1)P(=O)(O)C/C(=C\c1ccc(I)cc1)C(=O)O` (centres unmarked) [compound 12], the “RDP inhibitor potency in words” value (Renal Dipeptidase (RDP) [1]) was “potent RDP inhibitors”, the “activity of Z isomers relative to their E counterparts (9, 11 and 13)” value (Renal Dipeptidase (RDP) [1]) was “significantly more active” and the IC50 (Renal Dipeptidase (RDP) [1]) was 3.5 nM. For the same compound, the IC50 (Renal Dipeptidase (RDP) [2]; Table 1) was 8 nM and the Ki (Renal Dipeptidase (RDP) [3]) was 0.6 nM.

For `NC(CC1CCCCC1)P(=O)(O)C/C(=C\c1ccc(Br)cc1)C(=O)O` (centres unmarked) [compound 10], the “RDP inhibitor potency in words” value (Renal Dipeptidase (RDP) [1]) was “potent RDP inhibitors”, the “activity of Z isomers relative to their E counterparts (9, 11 and 13)” value (Renal Dipeptidase (RDP) [1]) was “significantly more active” and the IC50 (Renal Dipeptidase (RDP) [1]) was 8 nM. The IC50 (Renal Dipeptidase (RDP) [2]; Table 1) was 6 nM and the Ki (Renal Dipeptidase (RDP) [3]) was 0.72 nM.

With `NC(CC1CCCCC1)P(=O)(O)C/C(=C/c1ccccc1)C(=O)O` (centres unmarked) [compound 7] the IC50 (Renal Dipeptidase (RDP) [2]; Table 1) was 40 nM and the Ki (Renal Dipeptidase (RDP) [3]) was 1.6 nM.

`NC(CC1CCCCC1)P(=O)(O)CC(=Cc1ccc(I)cc1)C(=O)O` (mixture of isomers) [compound 14] was tested, and the IC50 (Renal Dipeptidase (RDP) [2]; Table 1) was 45 nM and the Ki (Renal Dipeptidase (RDP) [3]) was 3 nM.

For `NC(CC1CCCCC1)P(=O)(O)C/C(=C\c1ccc(C(F)(F)F)cc1)C(=O)O` (centres unmarked) [compound 18], the IC50 (Renal Dipeptidase (RDP) [2]; Table 2) was 10 nM.

`NC(CC1CCCCC1)P(=O)(O)C/C(=C/c1ccc(F)cc1)C(=O)O` (centres unmarked) [compound 9] gave an IC50 (Renal Dipeptidase (RDP) [1]) of 300 nM, an IC50 (Renal Dipeptidase (RDP) [2]; Table 1) of 15 nM and a Ki (Renal Dipeptidase (RDP) [3]) of 0.72 nM.

`NC(CC1CCCCC1)P(=O)(O)C/C(=C\c1ccc(F)cc1)C(=O)O` (centres unmarked) [compound 8] was tested, and the “RDP inhibitor potency in words” value (Renal Dipeptidase (RDP) [1]) was “potent RDP inhibitors”, the “activity of Z isomers relative to their E counterparts (9, 11 and 13)” value (Renal Dipeptidase (RDP) [1]) was “significantly more active” and the IC50 (Renal Dipeptidase (RDP) [1]) was 5.5 nM. For the same compound, the IC50 (Renal Dipeptidase (RDP) [2]; Table 1) was 5 nM and the Ki (Renal Dipeptidase (RDP) [3]) was 0.6 nM.

— patent US7785564B2, “Design and synthesis of renal dipeptidase inhibitors” (The Johns Hopkins University, priority 2002, dated 2010)
